Source: US20220388957A1, “COMPOUNDS AND COMPOSITIONS FOR TREATING CONDITIONS ASSOCIATED WITH STING ACTIVITY” (IFM Due, Inc., priority 2019, published 2022)

Target: T1, Human STING (Homo sapiens, UniProt Q86WV6, G230A/H232R/R293Q/R71H)
T1 construct: host or cells: THP1-Dual KO-IFNAR2 cells (human monocytic reporter line)
Assay: STING reporter assay (luciferase) in THP1-Dual KO-IFNAR2 cells stimulated with 2′3′cGAMP
Type: cell-based
Settings: 2′3′cGAMP 15 μM, 24 h
Method: STING pathway activation by the compounds described herein was measured using THP1-Dual™ cells (KO-IFNAR2).
THP1-Dual™ KO-IFNAR2 Cells (obtained from invivogen) were maintained in RPMI, 10% FCS, 5 ml P/S, 2 mM L-glut, 10 mM Hepes, and 1 mM sodium pyruvate. Compounds were spotted in empty 384 well tissue culture plates (Greiner 781182) by Echo for a final concentration of 0.0017-100 μM. Cells were plated into the TC plates at […], 2×10E6 cells/mL. For activation with STING ligand, 2′3′cGAMP (MW 718.38, obtained from Invivogen), was prepared in Optimem media.
The following solutions were prepared for each 1×384 plate: • o Solution A: 2 mL Optimem with one of the following stimuli: • 60 uL of 10 mM 2′3′cGAMP->150 μM stock • Solution B: 2 mL Optimem with 60 μL Lipofectamine 2000->Incubate 5 min at RT
2 mL of solution A and 2 ml Solution B was mixed and incubated for 20 min at room temperature (RT). 20 μL of transfection solution (A+B) was added on top of the plated cells, with a final 2′3′cGAMP concentration of 15 μM. The plates were then centrifuged immediately at 340 g for 1 minute, after which they were incubated at 37° C., 5% CO2, >98% humidity for 24 h. Luciferase reporter activity was then measured. EC50 values were calculated by using standard methods known in the art.
Luciferase reporter assay: 10 μL of supernatant from the assay was transferred to white 384-plate with flat bottom and squared wells. One pouch of QUANTI-Luc™ Plus was dissolved in 25 mL of water. 100 μL of QLC Stabilizer per 25 mL of QUANTI-Luc™ Plus solution was added. 50 μL of QUANTI-Luc™ Plus/QLC solution per well was then added. Luminescence was measured on a Platereader (e.g., Spectramax I3X (Molecular Devices GF3637001)).
Luciferase reporter activity was then measured. EC50 values were calculated by using standard methods known in the art.

T1 sequence (Q86WV6 whole entry R71H/G230A/H232R/R293Q): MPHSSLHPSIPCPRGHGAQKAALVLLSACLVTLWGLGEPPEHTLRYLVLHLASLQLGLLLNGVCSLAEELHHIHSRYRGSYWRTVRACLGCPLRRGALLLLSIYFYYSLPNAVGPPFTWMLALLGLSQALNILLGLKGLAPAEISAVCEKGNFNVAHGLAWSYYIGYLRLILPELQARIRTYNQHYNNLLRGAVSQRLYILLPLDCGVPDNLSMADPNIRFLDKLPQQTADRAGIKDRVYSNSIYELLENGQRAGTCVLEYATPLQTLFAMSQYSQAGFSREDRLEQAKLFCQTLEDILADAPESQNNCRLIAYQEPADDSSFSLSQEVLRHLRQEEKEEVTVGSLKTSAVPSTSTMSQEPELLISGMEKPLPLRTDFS

Compound	EC50 (class symbols) [µM]	EC50 (numeric bound) [µM]
O=S(=O)(Nc1c[nH]c2cc(F)c(F)cc12)c1ccc2c(c1)CCC2 [Compound 135, N-(5,6-difluoro-1H-indol-3-yl)-2,3-dihydro-1H-indene-5-sulfonamide]	5 to 100	–
CC1CNCCC1NS(=O)(=O)c1c[nH]c2nccc(Cl)c12 (stereo not shown) [Compound 112]	–	> 100
O=S(=O)(Nc1c[nH]c2cc(F)c(F)cc12)c1ccc2c(c1)CCCC2 [Compound 139, N-(5,6-difluoro-1H-indol-3-yl)-5,6,7,8-tetrahydro-naphthalene-2-sulfonamide]	5 to 100	–
CC(C)c1ccc(S(=O)(=O)Nc2c[nH]c3cc(F)c(F)cc23)cc1 [Compound 141, N-(5,6-difluoro-1H-indol-3-yl)-4-isopropylbenzene-sulfonamide]	5 to 100	–
O=S(=O)(Cc1cccc(C(F)(F)F)c1)Nc1c[nH]c2cc(F)c(F)cc12 [Compound 131, N-(5,6-difluoro-1H-indol-3-yl)-1-(3-(trifluoromethyl)phenyl) methanesulfonamide]	5 to 100	–
O=S(=O)(Nc1c[nH]nc1-c1ccccc1)c1ccc(C(F)(F)F)cc1 [Compound 106]	5 to 100	–
CCCCCCCCS(=O)(=O)Nc1c[nH]c2cc(F)c(F)cc12 [Compound 128, N-(5,6-difluoro-1H-indol-3-yl)octane-1-sulfonamide]	1 to 5	–
